Patent US9278091B2, “Compounds for the treatment of Clostridium difficile associated disease” (Summit Therapeutics PLC, priority 2010, dated 2016)

What was measured:
Assay type in all cases: cell-based
[1] = system: Bacteroides fragilis ATCC 25285; assay: MIC by broth microdilution (CLSI) against B. fragilis; settings: ATCC25285, read-out: minimum inhibitory concentration (MIC) B. fragilis
Procedure: (§1) The term “minimum inhibitory concentration” or “MIC” defines the lowest concentration of a test compound that is needed to inhibit growth of a bacterial isolate in vitro. A common method for determining the MIC of an antibiotic is to prepare several tubes containing serial dilutions of the test compound that are then inoculated with the bacterial isolate of interest.
(§2) MIC data were determined by broth microdilution according to CLSI protocols described in Methods for Antimicrobial Susceptibility Testing of Anaerobic Bacteria; Approved Standard-Seventh Edition [M11-A7, Vol. 27, No 2, January 2007] and Methods for Dilution Antimicrobial Susceptibility Tests for Bacteria That Grow Aerobically; Approved Standard—Seventh Edition [M7-A7, Vol. 26, No 2, January 2006].
(§3) The bacterial strains used were: • Bacteroides fragilis ATCC 25285 • Escherichia coli ATCC25922 • Lactobacillus paracasei Z1 83 • Bifidobacterium dentium NCTC 11816 • B. adolescentis MWR144 • Staphylococcus aureus ATCC29213 • Enterococcus faecalis ATCC29212

[2] = system: Lactobacillus paracasei Z1 83; assay: MIC by broth microdilution (CLSI) against L. paracasei; settings: Lacticaseibacillus paracasei, Z183, read-out: minimum inhibitory concentration (MIC) L. paracasei
Procedure: as §1, §2, §3

[3] = system: Bifidobacterium dentium NCTC 11816; assay: MIC by broth microdilution (CLSI) against B. dentium; settings: NCTC11816, read-out: minimum inhibitory concentration (MIC) B. dentium
Procedure: as §1, §2, §3

[4] = system: Staphylococcus aureus ATCC29213; assay: MIC by broth microdilution (CLSI) against S. aureus; settings: read-out: minimum inhibitory concentration (MIC) S. aureus
Procedure: as §1, §2, §3

[5] = system: Escherichia coli ATCC25922; assay: MIC by broth microdilution (CLSI) against E. coli; settings: read-out: minimum inhibitory concentration (MIC) E. coli
Procedure: as §1, §2, §3

[6] = system: Clostridium difficile ATCC700057; assay: MIC by broth microdilution (CLSI) against Clostridium difficile; settings: Clostridioides difficile, read-out: minimum inhibitory concentration (MIC) C. difficile
Procedure: as §1, §2

[7] = system: Enterococcus faecalis ATCC29212; assay: MIC by broth microdilution (CLSI) against E. faecalis; settings: read-out: minimum inhibitory concentration (MIC) E. faecalis
Procedure: as §1, §2, §3

B. adolescentis MWR144 = assay: MIC by broth microdilution (CLSI) against B. adolescentis; settings: Bifidobacterium adolescentis, read-out: minimum inhibitory concentration (MIC) B. adolescentis
Procedure: as §1, §2, §3

Row | SMILES | MIC [1] | MIC [2] | MIC [3] | MIC [4] | MIC [5] | MIC [6] | MIC [7] | MIC (B. adolescentis MWR144)
1 | c1cnc2sc(-c3nc4cc(-c5ccc6[nH]c(-c7ccncc7)nc6c5)ccc4[nH]3)cc2c1 [Example 1, 2-(2′-(pyridin-4-yl)-1H,1′H-5,5′-bibenzo[d]imidazol-2-yl)thieno[2,3-b]pyridine] | ≥ 64 µg/mL | ≥ 64 µg/mL | ≥ 64 µg/mL | ≥ 64 µg/mL | ≥ 64 µg/mL | ≤ 1 µg/mL | ≥ 64 µg/mL | ≤ 32 µg/mL
2 | c1ccc2sc(-c3nc4cc(-c5ccc6[nH]c(-c7ccncc7)nc6c5)ccc4[nH]3)cc2c1 [Example 2, 2-(benzo[b]thiophen-2-yl)-2′-(pyridin-4-yl)-1H,1′H-5,5′-bibenzo[d]imidazole] | ≥ 64 µg/mL | ≥ 64 µg/mL | ≥ 64 µg/mL | ≥ 64 µg/mL | ≥ 64 µg/mL | ≤ 4 µg/mL | ≥ 64 µg/mL | ≥ 64 µg/mL
3 | c1cc(-c2nc3ccc(-c4ccc5[nH]c(-c6ccc7c(c6)CCO7)nc5c4)cc3[nH]2)ccn1 [Example 7, 2-(2,3-dihydrobenzofuran-5-yl)-2′-(pyridin-4-yl)-1H,3′H-5,5′-bibenzo[d]imidazole] | ≥ 64 µg/mL | ≥ 64 µg/mL | ≥ 64 µg/mL | ≥ 64 µg/mL | ≥ 64 µg/mL | ≤ 1 µg/mL | ≤ 4 µg/mL | ≤ 4 µg/mL
4 | c1ccc2oc(-c3nc4cc(-c5ccc6[nH]c(-c7ccncc7)nc6c5)ccc4[nH]3)cc2c1 [Example 10, 2-(benzofuran-2-yl)-2′-(pyridin-4-yl)-1H,1′H-5,5′-bibenzo[d]imidazole] | ≥ 64 µg/mL | ≥ 64 µg/mL | ≥ 64 µg/mL | ≤ 32 µg/mL | ≥ 64 µg/mL | ≤ 1 µg/mL | ≥ 64 µg/mL | ≤ 32 µg/mL
5 | c1cc(-c2nc3ccc(-c4ccc5[nH]c(-c6ccc7[nH]ccc7c6)nc5c4)cc3[nH]2)ccn1 [Example 6, 2-(1H-indol-5-yl)-2′-(pyridin-4-yl)-1H,3′H-5,5′-bibenzo[d]imidazole] | ≥ 64 µg/mL | ≥ 64 µg/mL | ≥ 64 µg/mL | ≤ 32 µg/mL | ≥ 64 µg/mL | ≤ 1 µg/mL | ≥ 64 µg/mL | ≤ 32 µg/mL
6 | c1cc(-c2nc3ccc(-c4ccc5[nH]c(-c6ccc7[nH]cnc7c6)nc5c4)cc3[nH]2)ccn1 [Example 4, 6-(2′-(pyridin-4-yl)-1H,3′H-5,5′-bibenzo[d]imidazol-2-yl)benzo[d]imidazole] | ≥ 64 µg/mL | ≥ 64 µg/mL | ≥ 64 µg/mL | ≥ 64 µg/mL | ≥ 64 µg/mL | ≤ 1 µg/mL | ≥ 64 µg/mL | ≥ 64 µg/mL
7 | c1cc(-c2nc3ccc(-c4ccc5[nH]c(-c6ccc7sccc7c6)nc5c4)cc3[nH]2)ccn1 [Example 5, 2-(benzo[b]thiophen-5-yl)-2′-(pyridin-4-yl)-1H,3′H-5,5′-bibenzo[d]imidazole] | ≥ 64 µg/mL | ≥ 64 µg/mL | ≥ 64 µg/mL | ≥ 64 µg/mL | ≥ 64 µg/mL | ≤ 1 µg/mL | ≤ 32 µg/mL | ≤ 32 µg/mL
8 | c1cncc(-c2nc3cc(-c4ccc5[nH]c(-c6cc7cccnc7s6)nc5c4)ccc3[nH]2)c1 [Example 13, 2-(2′-(pyridin-3-yl)-1H,1′H-[5,5′-bibenzo[d]imidazol]-2-yl)thieno[2,3-b]pyridine] | ≥ 64 µg/mL | ≥ 64 µg/mL | ≥ 64 µg/mL | ≥ 64 µg/mL | ≥ 64 µg/mL | ≤ 1 µg/mL | ≥ 64 µg/mL | ≥ 64 µg/mL
9 | c1cc(-c2nc3cc(-c4ccc5[nH]c(-c6ccc7c(c6)OCO7)nc5c4)ccc3[nH]2)ccn1 [Example 9, 2-(benzo[d][1,3]dioxol-5-yl)-2′-(pyridin-4-yl)-1H,1′H-5,5′-bibenzo[d]imidazole] | ≥ 64 µg/mL | ≥ 64 µg/mL | ≥ 64 µg/mL | ≥ 64 µg/mL | ≥ 64 µg/mL | ≤ 1 µg/mL | ≥ 64 µg/mL | ≥ 64 µg/mL
10 | c1cncc(-c2nc3cc(-c4ccc5[nH]c(-c6ccc7nccn7c6)nc5c4)ccc3[nH]2)c1 [Example 12, 2-(imidazo[1,2-a]pyridin-6-yl)-2′-(pyridin-3-yl)-1H,1′H-5,5′-bibenzo[d]imidazole] | ≥ 64 µg/mL | ≥ 64 µg/mL | ≥ 64 µg/mL | ≥ 64 µg/mL | ≥ 64 µg/mL | ≤ 1 µg/mL | ≥ 64 µg/mL | ≥ 64 µg/mL
11 | c1cc(-c2nc3cc(-c4ccc5[nH]c(-c6ccc7nccn7c6)nc5c4)ccc3[nH]2)ccn1 [Example 8, 2-(imidazo[1,2-a]pyridin-6-yl)-2′-(pyridin-4-yl)-1H,1′H-5,5′-bibenzo[d]imidazole] | ≥ 64 µg/mL | ≥ 64 µg/mL | ≥ 64 µg/mL | ≥ 64 µg/mL | ≥ 64 µg/mL | ≤ 1 µg/mL | ≥ 64 µg/mL | ≥ 64 µg/mL
12 | c1cc(-c2nc3cc(-c4ccc5[nH]c(-c6ccc7occc7c6)nc5c4)ccc3[nH]2)ccn1 [Example 3, 2-(benzofuran-5-yl)-2′-(pyridin-4-yl)-1H,1′H-5,5′-bibenzo[d]imidazole] | ≥ 64 µg/mL | ≤ 32 µg/mL | ≤ 32 µg/mL | ≤ 1 µg/mL | ≥ 64 µg/mL | ≤ 1 µg/mL | ≤ 1 µg/mL | ≤ 4 µg/mL
13 | c1cc(-c2nc3cc(-c4ccc5[nH]c(-c6cc7ccncc7s6)nc5c4)ccc3[nH]2)ccn1 [Example 11, 2-(2′-(pyridin-4-yl)-1H,1′H-[5,5′-bibenzo[d]imidazol]-2-yl)thieno[2,3-c]pyridine] | ≥ 64 µg/mL | ≥ 64 µg/mL | ≥ 64 µg/mL | ≥ 64 µg/mL | ≥ 64 µg/mL | ≤ 1 µg/mL | ≥ 64 µg/mL | ≥ 64 µg/mL
